Reference: patent US11591574B2, “Optical-quality surface that imparts spatial control of macrophage fusion” (ARIZONA BOARD OF REGENTS ON BEHALF OF ARIZONA STATE …, priority 2016, dated 2023)
Entries after “also recorded” stand apart in the source; their conditions may differ.

Test system: macrophages
Experiment: IL-4-induced macrophage fusion (fusion index)
Assay type: cell-based, mouse
Protocol: To test the rates of cell fusion on the above described glass slides with a pattern surface, monocytes or macrophages are collected according to standard protocols and applied to hydrocarbon chain surface. After 30 minutes, the cultures are washed 3 times rapidly with phosphate-buffered saline to remove unbound cells, and complete cell culture medium (DMEM:F12, 10% FBS, 1% antibiotics) is applied to the culture for about 2 hours. After about 2 hours, about 10 ng/ml of interleukin-4 is applied to the culture to induce fusion and the culture is incubated until the respective time point.
Macrophages were isolated from the mouse peritoneum 72 hr after injection of a sterile 4% solution of Brewer's thioglycollate (Sigma Aldrich, St. Louis, Mo.). […] Immediately following euthanasia, 5 mL of an ice-cold solution of phosphate-buffered saline (PBS, pH 7.4) supplemented with 5 mM EDTA was injected aseptically into the peritoneum, the lavage containing cells was collected, and the cells were counted with a Neubauer hemocytometer. […]
Peritoneal lavage cells were applied to various surfaces at a concentration of 2,000 cells/mm2 and incubated in 5% CO2 at 37° C. for 30 min. […] The extent of MGCs formation was evaluated by determining the fusion index. […] Three to 5 bright field images collected at 20× objective magnification were analyzed per specimen.

Structure (SMILES): CCCCCCCC/C=C\CCCCCCCC(N)=O [oleamide]
- increase in fusion versus clean glass (adsorption onto clean glass): ~4 fold
- level of macrophage fusion (hydrocarbon deposited on optical-quality glass, IL-4 induced): high-levels; also recorded: high levels
